From patent publication US11933866B2, “Magnetic resonance maps for analyzing brain tissue” (Tel HaShomer Medical Research Infrastructure and Services …, priority 2013, dated 2024)

Key:
[1] = test system: glioblastoma; conditions: TMZ during radiotherapy and for six months post radiotherapy; cited from earlier work
[2] = test system: recurrent GBM; experiment: Conventional MRI and maps follow-up of a recurrent GBM patient on Bevacizumab (Example 3); type: in vivo, human; conditions: one patient, three months after initiation of Bevacizumab treatment
Source text: Referring now to FIG. 8, a person with recurrent GBM was recruited 7 month after diagnosis prior to initiation of Bevacizumab treatment. At diagnosis the patients was operated on and received chemoradiation followed by TMZ. Six months later, at progression, the patient underwent a second resection and was recruited to the present Bevacizumab study 1 month after the second surgery, prior to initiation of the Bevacizumab treatment. At this point their enhancing lesion consisted of nearly 50% tumor according to the maps. […] Following this scan the patient was treated with re-irradiation (in parallel with continuing Bevacizumab) and was stabilized. […] The patient lived another ˜7 months after this last MRI scan.

[3] = test system: cerebellar metastasis of breast cancer; experiment: Delayed contrast extravasation MRI maps before and after Avastin treatment, patient case (Example 15); type: in vivo, human; conditions: one patient, 2 years after stereotactic radiosurgery; maps before vs after Avastin treatment
Source text: There is current dispute weather Avastin affects active tumor or only treatment effects.
A patient with cerebellar metastasis of breast cancer was recruited 2 years after stereotactic radiosurgery with suspected radiation necrosis.

[4] = test system: glioblastoma; conditions: glioblastoma patients at progression after standard therapy; results of 2 studies; cited from earlier work

Cn1nnc2c(C(N)=O)ncn2c1=O [temozolomide]
additional toxicity [1]: minimal additional toxicity

Bevacizumab
conventional MRI finding [2]: showed improvement
blue/tumor volume in the maps ([2]; consistent with clinical deterioration): significantly larger blue/tumor volume
response of tumor and radiation necrosis components in the maps [3]: remarkable response of both components
tumor size [4]: reduced tumor size in some glioblastoma patients
